Experimental data published in paper PMC10955247, “In vivo screening for toxicity-modulating drug interactions identifies antagonism that protects against ototoxicity in zebrafish” (Frontiers in Pharmacology, 2024).
pEC50: −log10 of the molar value. Structures can show the parent of a compound that is named as a salt.

Tests used:
[1] = tested on: zebrafish lateral line hair cells; assay: Ototoxic dose response in myo6b::gfp zebrafish larvae; format: in vivo, Danio rerio; conditions: myo6b::gfp fish; read-out: dose required to elicit 50% of maximal HC damage (EC50)
Protocol: For drug dose response testing, zebrafish of the wildtype genetic background AB (Table 1) and fish that were transgenic for GFP under the myo6b HC-specific promoter (Tg (myo6b:EGFP), Table 1) were raised as described previously ([Westerfield, 2007]; [Farr et al., 2020]). […]
The resulting images were analyzed for dose-response and drug interaction characteristics with the PEPITA software package, which can be found on GitHub (https://github.com/ma-lab-cgidr/PEPITA-tools). […] Manual masks were created on occasion for avoidance of fluorescent contamination, adjusted segmenting for myo6b::gfp fish to remove inner ear HC fluorescence, or exclusion of dead or damaged fish. Each fish was then adjusted for autofluorescence using the fluorophore-free red channel and scored based on the sum of green fluorescence pixel values surrounding 10 of the top 15 brightest pixels in the masked image (Figures 1B–E). These scores were standardized by comparison with the median score of wells containing untreated fish and a score representing no remaining HC fluorescence, both derived for each plate. […]
To further explore the mechanism of macrolide and aminoglycoside antagonism, we fluorescently labeled the aminoglycosides neomycin and gentamicin with Texas Red-X succinimidyl ester to track HC uptake with and without macrolide treatment (Table 1). […] Drug-induced injury was quantified by loss of fluorescence in HCs. […]

[2] = tested on: zebrafish lateral line hair cells; assay: PEPITA quantification of ototoxicity in YO-PRO-1-stained AB zebrafish larvae; format: in vivo
Protocol: Therefore, at 5 dpf, larvae were transferred to 12-well plates (5–11 fish per well, 1 well per condition) containing the relevant compound or combination diluted with ICS water, or ICS water alone or high-dose neomycin to serve as controls. Unless otherwise noted, fish were exposed to drug (either an individual compound or a pairwise combination of compounds) for 4 h, as a balance between longer exposure times for accommodating varied kill kinetics and shorter exposure times for technical tractability. Treatments with multiple drugs involved co-administering a prepared solution consisting of both drugs with defined concentrations in ICS water.
Fluorescence microscopy was performed using a Keyence BZ-X800 microscope imaging system, which enables high-throughput semi-automated imaging of 96-well plates.
Each image was masked using automated object detection to include only the fish itself. Manual masks were created on occasion for avoidance of fluorescent contamination, adjusted segmenting for myo6b::gfp fish to remove inner ear HC fluorescence, or exclusion of dead or damaged fish. Each fish was then adjusted for autofluorescence using the fluorophore-free red channel and scored based on the sum of green fluorescence pixel values surrounding 10 of the top 15 brightest pixels in the masked image (Figures 1B–E). These scores were standardized by comparison with the median score of wells containing untreated fish and a score representing no remaining HC fluorescence, both derived for each plate.
Wells where the expected response ( Ra×Rb ) and observed response ( Rab ) were both less than 10% or greater than 90% were excluded from aggregation to reduce the effect of our choice of dose range. The remaining wells were summarized by averaging into a composite interaction score for the combination; we refer to this metric as the “windowed excess over Bliss” (wEOB).

[3] = tested on: zebrafish lateral line hair cells; assay: Standard assay: manual hair cell counting from individual neuromasts (confocal); format: in vivo, Danio rerio; conditions: same representative experiment as PEPITA curve; read-out: EC50 (Standard Assay, normalized HC counts from individual neuromasts)
Protocol: To prepare the fish for confocal microscopy, fish were fixed in 2% paraformaldehyde for 1 hour at room temperature as described previously ([Philip et al., 2018]), before being transferred to fluoromount and mounted between two glass coverslips. To avoid crushing the fish, a dot of nail polish was placed on each corner of the coverslip so that the top coverslip sat slightly above the bottom coverslip where the fish was mounted. Fluorescent confocal microscopy was performed using a Leica Stellaris 8 microscope. Cranial lateral line neuromasts of each fish were imaged under an HC PL APO CS2 40x/1.30 oil objective with a 405 nm laser and 541/47 emission filter. Images were taken as z-stacks in 0.66 µm steps. Stacks were transformed into average intensity projections and prepared for visual analysis in ImageJ.
For hair cell survival quantification from individual neuromasts, trained observers counted surviving hair cells in confocal images of neuromasts of larvae that had been treated with various doses of neomycin. Two to eight neuromasts were scored per condition, and counts for each neuromast were averaged between two scorers. These counts were divided by previously characterized mean hair cell counts ([Harris et al., 2003]), matched by anatomical position, to yield a position-scaled measure of HCs present in each neuromast. […]

NC[C@@H]1O[C@H](O[C@H]2[C@@H](O)[C@H](O[C@@H]3[C@@H](O)[C@H](N)C[C@H](N)[C@H]3O[C@H]3O[C@H](CN)[C@@H](O)[C@H](O)[C@H]3N)O[C@@H]2CO)[C@H](N)[C@@H](O)[C@@H]1O [Neomycin, Neomycin sulfate hydrate]
pEC50 [1]: 4.70 | RFU (residual HC fluorescence) ([2]; AZM 0 μM, NEO 6.4 μM, 4 h): 10% | RFU (residual HC fluorescence) ([2]; AZM 96 μM + NEO 6.4 μM, 4 h): 88% | windowed excess over Bliss (wEOB) ([2]; AZM + NEO checkerboard, negative = antagonism): −0.36 | dose needed to elicit 75% maximal HC damage (EC75) ([2]; NEO alone, 4 h): 3300 nM | ototoxic interaction with AZM ([2]; co-administration with AZM): otoprotective antagonistic interactions | shift toward antagonism in lateral line HC damage as compared to inhibition of the bacterial species on average ([2]; interaction with AZM, zebrafish wEOB vs average of E. coli, M. abscessus, S. aureus): 44 %pt. | EC75 shift ([2]; ototoxin co-administered with azithromycin (AZM) vs administered alone): 13 fold | EC75 shift ([2]; ototoxin co-administered with azithromycin (AZM) vs administered alone, listed as Neomycin (NEO)): 13-fold | EC75 shift ([2]; ototoxin co-administered with erythromycin (ERY) vs administered alone, listed as NEO): 8 fold | EC75 shift ([2]; ototoxin co-administered with erythromycin (ERY) vs administered alone, listed as Neomycin (NEO)): 8-fold | ototoxic interaction with clarithromycin (CLM) ([2]; preliminary experiments): antagonistic interactions | pEC50 ([2]; representative experiment, HC damage dose response, read-out: EC50 (PEPITA, relative fluorescence units)): 5.85 | pEC50 [3]: 5.70
